Test system: HCV replicon RNA replication (Renilla luciferase HCV replicon cells 2209-23)
Assay: Renilla luciferase assay (HCV replicon)
Assay type: cell-based
Details: 72 h; Huh7-derived replicon cell line 2209-23, three days incubation, luciferase readout

Compound | IC50 [nM]
CCC(C)OC(=O)[C@H](C)NP(=O)(OC[C@@]1(N=[N+]=[N-])O[C@@H](n2ccc(N)nc2=O)[C@H](O)[C@@H]1O)Oc1ccccc1 (stereo partly drawn) [Compound I-28, (S)-2-{[(2R,3S,4R,5R)-5-(4-Amino-2-oxo-2H-pyrimidin-1-yl)-2-azido-3,4-dihydroxy-tetrahydro-furan-2-ylmethoxy]-phenoxy-phosphorylamino}-propionic acid sec-butyl ester] | 615
CC(C)OC(=O)[C@H](C)NP(=O)(OC[C@@]1(N=[N+]=[N-])O[C@@H](n2ccc(N)nc2=O)[C@H](O)[C@@H]1O)Oc1ccccc1 (stereo partly drawn) [Compound I-35, (S)-2-{[(2R,3S,4R,5R)-5-(4-Amino-2-oxo-2H-pyrimidin-1-yl)-2-azido-3,4-dihydroxy-tetrahydro-furan-2-ylmethoxy]-phenoxy-phosphorylamino}-propionic acid isopropyl ester] | 991
CC(C)OC(=O)[C@H](C)NP(=O)(OC[C@@]1(N=[N+]=[N-])O[C@@H](n2ccc(=O)[nH]c2=O)[C@H](O)[C@@H]1O)Oc1ccccc1 (stereo partly drawn) [Compound I-14, (S)-2-{[(2R,3S,4R,5R)-2-Azido-5-(2,4-dioxo-3,4-dihydro-2H-pyrimidin-1-yl)-3,4-dihydroxy-tetrahydro-furan-2-ylmethoxy]-phenoxy-phosphorylamino}-propionic acid isopropyl ester] | 864
C[C@H](NP(=O)(OC[C@@]1(N=[N+]=[N-])O[C@@H](n2ccc(=O)[nH]c2=O)[C@H](O)[C@@H]1O)Oc1ccccc1)C(=O)OCc1ccccc1 (stereo partly drawn) [Compound I-13, (S)-2-{[(2R,3S,4R,5R)-2-Azido-5-(2,4-dioxo-3,4-dihydro-2H-pyrimidin-1-yl)-3,4-dihydroxy-tetrahydro-furan-2-ylmethoxy]-phenoxy-phosphorylamino}-propionic acid benzyl ester] | 754
CCOC(=O)[C@H](C)NP(=O)(OC[C@@]1(N=[N+]=[N-])O[C@@H](n2ccc(N)nc2=O)[C@H](O)[C@@H]1O)Oc1ccccc1 (stereo partly drawn) [Compound I-34, (S)-2-{[(2R,3S,4R,5R)-5-(4-Amino-2-oxo-2H-pyrimidin-1-yl)-2-azido-3,4-dihydroxy-tetrahydro-furan-2-ylmethoxy]-phenoxy-phosphorylamino}-propionic acid ethyl ester] | 382

Test system: HIV
Assay: not given
Details: background, Ohrui et al.; cited from earlier work

Compound | anti-HIV activity
C#C[C@]1(CO)O[C@@H](n2cc(C)c(=O)[nH]c2=O)[C@@H](O)[C@@H]1O [Compound 6b] | inactive
C#CC1(CO)OC(n2ccc(N)nc2=O)C(O)C1O (stereo not shown) [Compound 6a, 4-Ethynyl-cytarabine] | good anti-HIV activity

— US7608599B2, “Antiviral phosphoramidates” (Roche Palo Alto LLC, priority 2005, dated 2009)
